Several values for one entry are separate records, joined by “and”; a condition that tells them apart may be missing. Equal values may be shown once.
Key:
[1] = 101.33 kPa, Liquid
[2] = xn = mol fraction of the nth substance listed; conditions: 101.33 kPa, Liquid

CC(C)CO [2-methyl-1-propanol]
[1]
Conditions	mass density [kg/m3]	viscosity [mPa·s]
293.15 K	801.58	3.994
298.15 K	798.09	3.334
303.15 K	794.09	2.794

CCO [ethanol]
[1]
Conditions	mass density [kg/m3]	viscosity [mPa·s]
293.15 K	789.32	1.17
298.15 K	785.06	1.078
303.15 K	780.68	0.982

CN1CCNCC1 [N-methylpiperazine] + CC(C)O
[2]
Conditions	mass density, 293.15 K [kg/m3]	mass density, 298.15 K [kg/m3]	mass density, 303.15 K [kg/m3]	viscosity, 293.15 K [mPa·s]	viscosity, 298.15 K [mPa·s]	viscosity, 303.15 K [mPa·s]
x2 = 0	903.78	899.8	894.54	2.1	1.841	1.624
x2 = 0.0998	897.99	893.98	888.87	2.261	1.967	1.733
x2 = 0.1988	891.42	887.39	882.45	2.393	2.072	1.816
x2 = 0.3003	883.75	879.73	874.96	2.502	2.162	1.891
x2 = 0.3998	875.22	871.21	866.62	2.581	2.224	1.938
x2 = 0.5	865.48	861.47	857.07	2.65	2.281	1.984
x2 = 0.5996	854.41	850.38	846.15	2.69	2.312	2.012
x2 = 0.7	841.49	837.39	833.32	2.704	2.329	2.027
x2 = 0.7991	826.48	822.27	818.3	2.678	2.309	2.008
x2 = 0.8503	817.61	813.32	809.39	2.648	2.284	1.986
x2 = 0.9003	808.06	803.69	799.79	2.615	2.25	1.954
x2 = 0.9489	797.8	793.36	789.46	2.541	2.183	1.893

CN1CCNCC1 [N-methylpiperazine]
[1]
Conditions	mass density	viscosity [mPa·s]
293.15 K	903.8 kg/m3 and 903.79 kg/m3 and 903.78 kg/m3	2.1
298.15 K	899.8 kg/m3	1.841
303.15 K	894.52 kg/m3 and 894.54 kg/m3 and 894.55 kg/m3	1.624

CO [methanol]
[1]
Conditions	mass density [kg/m3]	viscosity [mPa·s]
293.15 K	791.09	0.593
298.15 K	786.48	0.551
303.15 K	781.22	0.509

CCCO [propan-1-ol]
[1]
Conditions	mass density [kg/m3]	viscosity [mPa·s]
293.15 K	803.79	2.194
298.15 K	799.74	1.945
303.15 K	795.68	1.73

CCCCO [butan-1-ol] + CN1CCNCC1
[2], x1 = 1
Conditions	mass density [kg/m3]	viscosity [mPa·s]
293.15 K	809.97	2.938
298.15 K	806.15	2.572
303.15 K	802.14	2.271

CCCCO [butan-1-ol]
[1]
Conditions	mass density [kg/m3]	viscosity [mPa·s]
293.15 K	809.97	2.938
298.15 K	806.15	2.572
303.15 K	802.14	2.271

CC(C)O [propan-2-ol]
[1]
Conditions	mass density [kg/m3]	viscosity [mPa·s]
293.15 K	785.84	2.405
298.15 K	781.3	2.062
303.15 K	777.41	1.782

CC(C)O [propan-2-ol] + CN1CCNCC1
[2], x1 = 1
Conditions	mass density [kg/m3]	viscosity [mPa·s]
293.15 K	785.84	2.405
298.15 K	781.3	2.062
303.15 K	777.41	1.782

CC(C)CO [2-methyl-1-propanol] + CN1CCNCC1
[2], x1 = 1
Conditions	mass density [kg/m3]	viscosity [mPa·s]
293.15 K	801.58	3.994
298.15 K	798.09	3.334
303.15 K	794.09	2.794
